Results published in US20090106858A1, “Isolation and Characterization of the Csb3-1 Mutant of Arabidopsis Thaliana and Use Thereof as a Regulator of Resistance in Plants to Diseases Caused by Biotrophic Pathogens” (priority 2005, published 2009).
“Also recorded” adds a separate entry of the source.

Key:
[1] = system: P69C-GUS; details: wild Arabidopsis plants, local application (Jordá et al., 2000); cited from earlier work
[2] = system: PR-1 and GST6 marker genes; test: RT-PCR analysis of SA regulated marker genes PR-1 and GST6; type: in vivo, Arabidopsis thaliana; details: csb3-1 seedlings, 25 μM
Procedure: (§1) FIG. 8. Pharmacological complementation with phosmidomicine of the resistance increase in csb3-1 plants. • (A) Wild seedlings (wt) and csb3-1 seedlings of Arabidopsis were sprayed once at 48 hours and 24 hours before exposing them to Pst DC3000 with a buffer solution complemented with 25 μM or 50 μM dilution (+phosm) the controls were treated in a similar manner with buffer solution alone. The plants were exposed to Pst DC3000 and the pathogen's growth was recorded at days 0, 3 and 5 after inoculation (dpi). • (B) The effect of the phosmidomicine treatment (25 μM, treated as described in point (A) on the constitutive expression of P69C-GUS in csb3-1 seedlings (right) as compared with csb3-1 seedlings treated with the buffer solution alone (left). • (C) The effect of the phosmidomicine treatment (25 μM, treated as described in point (A) on the constitutive expression of SA regulated marker genes in csb3-1 seedlings of Arabidopsis as compared with csb3-1 seedlings treated with the buffer solution alone.
To analyze the level of genic expression by inverse transcriptase mediated PCR, the total RNA samples from leaf tissue were prepared using the Totally RNA kit made by Ambion (Austin, Tex.). Inverse transcription was done using the RT kit for PCR made by Clontech (Palo Alto, Calif.). […]

[3] = system: P69C-GUS; test: Histochemical GUS staining of P69C-GUS indicator gene expression; type: in vivo, Arabidopsis thaliana; details: csb3-1 seedlings, 25 μM
Procedure: as §1
The mutant line csb3-1 used in these experiments had been subjected to backcrossing at least four times with the original wild line. Plants were made to grow in a growth chamber (19-23° C., fluorescent light at 100 μEm^−2 seg^−1) in a cycle of 10 hours of light to 14 hours of darkness. […]

[4] = system: Pseudomonas syringae pv. tomato DC3000; test: Pst DC3000 bacterial growth in Arabidopsis seedlings sprayed with phosmidomicine before inoculation; type: in vivo, Arabidopsis thaliana
From the text: An increase in substrate (MEcPP) accumulation of the CSB3/HDS enzyme or of any of the intermediate metabolic products that precede MEcPP accumulation in the MEP pathway (FIG. 6) could be responsible for the increased resistance of csb3-1 plants. Alternatively, a decrease of product synthesis (HMBPP) of the same enzyme could compromise the synthesis and accumulation of final products (IPP and DMAPP) (FIG. 6) that in turn could compromise the later biosynthesis of the different isoprenoids that must be derived from the MEP pathway. This last possibility can also be responsible for the resistance increase of the csb3-1 plants. In order to study any of these possibilities the impact of an inhibitor in the MEP pathway for increased resistance of csb3-1 plants to Pst DC3000 was studied. To approach the question in this manner phosmidomicine [3-(N-formil-N-hydroxyamino)-propylphosphonic acid] was used as well as a DXR competitive inhibitor, the enzyme that controls the second stage involved in the MEP pathway (FIG. 6) and reduces the levels of the final products obtained by this pathway (that is, IPP and DMAPP) (Schwender, J., Muller, C., Zeidler, J., and Lichtenthaler, H. K. (1999). Cloning and heterologous expression of a cDNA encoding 1-deoxy-D-xylulose-5 phosphate reductoisomerase of Arabidopsis thaliana. FEBS Lett. 455, 140-144; Laule, O., Furholz, A., Chang, H., Zhu, T., Wang, X., Heifetz, P. B., Gruissem, W., and Lange, M. (2003). Crosstalk between cytosolic and plastidial pathways of isoprenoid biosynthesis in Arabidopsis thaliana. Proc. Natl. Acad. Sci. USA 100, 6866-6871). In order to separate this response from the response derived from an arrest of the chloroplast development, phosmidomicine treatments were applied in much smaller dosages and during smaller periods of times than those used experimentally by others (Laule et al., 2003). Wild seedlings and csb3-1 seedlings were sprayed once with a 25 μM or a 50 μM dilution of phosmidomicine 48 hours and 24 hours before inoculation with Pst DC3000 and the subsequent bacterial growth was recorded in inoculated plants at 0.3 and 5 d.p.i. Treated plants were also studied to determine the effect on the normal expression of the P69C-GUS gene. […] Greater dosages of this inhibitor were not tested, since they could have a collateral developmental and/or homeostatic effect in the chloroplast that could lead to undesired side effects.
FIG. 8. […] The plants were exposed to Pst DC3000 and the pathogen's growth was recorded at days 0, 3 and 5 after inoculation (dpi). • (B) The effect of the phosmidomicine treatment (25 μM, treated as described in point (A) on the constitutive expression of P69C-GUS in csb3-1 seedlings (right) as compared with csb3-1 seedlings treated with the buffer solution alone (left). • (C) The effect of the phosmidomicine treatment (25 μM, treated as described in point (A) on the constitutive expression of SA regulated marker genes in csb3-1 seedlings of Arabidopsis as compared with csb3-1 seedlings treated with the buffer solution alone.
Pseudomonas syringae pv. tomato DC3000 was grown and was then prepared to be inoculated as previously described (Mayda et al., 2000). […] A high throughput method for quantifying growth of phytopathogenic bacteria in Arabidopsis thaliana. […]

## O=C(O)c1ccccc1O [SA, Salicylic acid]
[1]
  expression of P69C-GUS after local application: induces the expression of the P69C-GUS

## O=CN(O)CCCP(=O)(O)O [phosmidomicine, 3-(N-formil-N-hydroxyamino)-propylphosphonic acid]
[2]
  effect on constitutive expression of PR-1 and GST6 marker genes: regulation by reduction of the constitutive expression
[3]
  effect on constitutive expression of the P69C-GUS transgene: regulation by reduction of the constitutive expression of the P69G-GUS transgene
[4]; csb3-1 plants, 5 μM treatments
  effect on increased resistance of csb3-1 plants to Pst DC3000 (bacterial growth): provoked a reduction in the increased resistance of the csb3-1 plants that was only observed 5 days after inoculation
[4]; csb3-1 plants, summary statement
  complementation of the resistance increase phenotype associated to csb3-1: complement completely the resistance increase phenotype associated to csb3-1
[4]; csb3-1 seedlings, one 50 μM treatment
  effect on increased resistance of csb3-1 plants to Pst DC3000 (bacterial growth): completely suppressed the resistance increase attributed to the csb3-1 mutation
[4]; csb3-1 seedlings, sprayed once with 25 μM 48 h and 24 h before inoculation
  effect on increased resistance of csb3-1 plants to Pst DC3000 (bacterial growth): noticeably reduce resistance increase to Pst DC3000
[4]; wild plants, 50 μM
  effect on normal resistance of wild plants to Pst DC3000 (bacterial growth): made the plants more susceptible to this virulent pathogen; also recorded: resulted in greater rates of bacterial growth
